Assays:
[1] = system: non-transformed iris cells; assay: Evaluation of selection agents: growth suppression of non-transformed iris suspension-cultured cells on MS-C medium; assay type: cell-based, Iris germanica; conditions: for inhibition of cell growth scored visually: preliminary experiments, five concentrations
Procedure: Evaluation of selection agents. […] To determine the efficacy of several commonly used agents for selecting transformed iris cells, the following substances were tested: five antibiotics (methotrexate, hygromycin, geneticin (G418), gentamycin, and phleomycin); three herbicides (glyphosate [N-(Phosphonomethyl)glycine] (Monsanto, St. Louis, Mo.), chlorsulfuron [2-Chloro-N-[[(methoxy-6-methyl-1,3,5-triazin-2-yl)amino]carbonyl]benzenesulfonamide] (E.I. Du Pont de Nemours & Co., Inc., Agricultural Products Dept., Wilmington, Del.) and glufosinate-ammonium (Basta; Hoechst Canada, Inc., Regina, Saskatchewan, Canada)); and one amino acid analog (4-methyl-tryptophan) (Sigma).
The liquid MS-L medium was removed from a three-week-old iris suspension culture and the cells spread on Whatman No. 1 filter papers (42.5 mm diameter) in small culture plates (60 mm×15 mm), over MS-C medium [MS-L medium with 3 g·L^−1 Phytagel (Sigma Chem. Co., St. Louis, Mo.), as described in Examples 1 and 2] containing increasing amounts of the selection agent. Plates were incubated for three weeks in the dark at 25° C. In preliminary experiments, five concentrations of each selection agent were tested and inhibition of cell growth was scored visually.
Fresh weights of resultant tissue were measured and mean values, expressed as a percentage of growth by controls (no selection agent). At least five plates were used for each concentration of selection agent.

[2] = system: suspension-cultured cells of Iris germanica; assay: Effect of Kin and NAA in MS-I medium on regeneration potential of differentiated clumps; assay type: cell-based; conditions: 6 weeks on MS-D with 1.25 μM BA
Procedure: Effect of Kin and NAA, a/one and in combination, in MS-I medium. To induce plant morphogenesis from suspension-cultured cells, 16 different combinations of NAA (0.0, 0.5, 2.5, and 12.5 μM) and Kin (0.0, 2.5, 12.5, and 62.5 μM) were evaluated. A 0.5-mL aliquot of the resuspended cells was inoculated on each 15×60 mm plastic plate containing 20 mL MS-I medium with different combinations of Kin and NAA. The cells were spread with a spoon-like spatula to form a uniform layer on the surface of MS-I medium. The plates were sealed with Parafilm® and incubated in the dark at 25° C. The number of differentiated clumps was recorded after five weeks. The clumps were collected and grouped into four size classes: large (>10 mm), medium (5 to 10 mm), small (2 to 5 mm) and very small (<2 mm). The regeneration potential of differentiated clumps was assessed by randomly sampling 30 to 60 clumps from each size class and transferring them to three to six Magenta GA-7 vessels (Sigma Chem. Co., St. Louis, Mo.) containing 50 mL of MS-D medium (Table 1) supplemented with 1.25 μM BA. They were then incubated under light (50 μmol m^−2 s^−1) at 23° C. for six weeks. The total number of regenerating clumps (i.e., differentiated clumps that continued to grow and develop on MS-D medium) was counted, and percentages of regenerating clumps that developed shoots only or plantlets (rooted shoots derived from somatic embryos) were recorded. The regenerated shoots and plantlets were transferred to MS-R medium (Table 1) to promote root development. Each Kin/NAA combination was evaluated in five plates per experiment; the entire experiment was repeated three times.

[3] = system: leaf samples from non-transformed iris plants; assay: Leaf-bleach assay with paromomycin; set-up: species or system Iris germanica; conditions: 200 mg·L^−1 paromomycin; leaf samples from control (non-transgenic) plants; five days
Procedure: Functional assay of NPTII genes. To test the NPTII expression in transformed iris plants, the leaf-bleach assay was carried out according to Cheng et al. (Plant Physiol., 115:971-980, 1997), with minor modifications described below. Four pieces (≈7-mm) were cut from the second youngest leaf of each plant approximately one month after establishment in growing medium in the greenhouse. One leaf piece was placed in 1 mL of solution containing 25 mg·L^−1 benomyl fungicide [methyl 1-(butylcarbamoyl)-2 benzimidazolecarbamate] (Hi-Yield Chem. Co., Bonham, Tex.) and 0.01% Triton X-100 (Sigma), in a well of 24-well culture plate, as a control. Each of the remaining three pieces were placed in 1 mL of the same solution with either 50, 100, or 200 mg·L^−1 paromomycin (Sigma). Leaf samples from the non-transformed iris plants at a similar developmental stage were used as a negative control. The samples were vacuum-infiltrated for 10 minutes. The plates were then sealed with Parafilm and incubated for five days at 23° C. with a 16 hours photoperiod of 50 μmol·m^−2·s^−1 provided by cool-white fluorescent lamps. In preliminary assays, G418 and hygromycin were also tested, the latter for the functional expression of the hpt gene. The response to all three antibiotics was very similar, so paromomycin was selected to assay the rest of the putative transgenic iris plants because it was least expensive.

[4] = 2.5 μM in MS-I medium (main effect)
[5] = 12.5 μM in MS-I medium (main effect)
[6] = 62.5 μM in MS-I medium (main effect)
[7] = 0.5 μM in MS-I medium (main effect)

Cc1cccc2[nH]cc(C[C@H](N)C(=O)O)c12 [4-methyl-tryptophane, 4-methyl-tryptophan]
inhibition of cell growth scored visually [1]: did not clearly inhibit growth

CP(=O)(O)CCC(N)C(=O)O (centres unmarked) [Basta, glufosinate-ammonium]
inhibition at 10 µg/mL ([1]; Iris germanica, 504 h, read-out: cell growth inhibited): ~70%

c1coc(CNc2ncnc3[nH]cnc23)c1 [KIN, kinetin]
Regenerating clumps (%) [2, 4]: 41%
Regenerating clumps developing PLANTLETS (%) [2, 4]: 96%
Regenerating clumps developing SHOOTS ONLY (%) [2, 4]: 5%
Regenerating clumps (%) [2, 5]: 44%
Regenerating clumps developing PLANTLETS (%) [2, 5]: 89%
Regenerating clumps developing SHOOTS ONLY (%) [2, 5]: 12%
Regenerating clumps (%) [2, 6]: 45%
Regenerating clumps developing PLANTLETS (%) [2, 6]: 88%
Regenerating clumps developing SHOOTS ONLY (%) [2, 6]: 12%

O=C(O)Cc1cccc2ccccc12 [NAA, 1-naphthaleneacetic acid]
Regenerating clumps (%) [2, 7]: 56%
Regenerating clumps developing PLANTLETS (%) [2, 7]: 94%
Regenerating clumps developing SHOOTS ONLY (%) [2, 7]: 6%
Regenerating clumps (%) [2, 4]: 55%
Regenerating clumps developing PLANTLETS (%) [2, 4]: 89%
Regenerating clumps developing SHOOTS ONLY (%) [2, 4]: 11%
Regenerating clumps (%) [2, 5]: 33%
Regenerating clumps developing PLANTLETS (%) [2, 5]: 94%
Regenerating clumps developing SHOOTS ONLY (%) [2, 5]: 7%

COc1nc(C)nc(NC(=O)NS(=O)(=O)c2ccccc2Cl)n1 [chlorsulfuron, 2-Chloro-N-[[(methoxy-6-methyl-1,3,5-triazin-2-yl)amino]carbonyl]benzenesulfonamide]
inhibition at 0.5 µg/mL ([1]; Iris germanica, 504 h, 0.5 mg·L^−1, three weeks on MS-C medium, read-out: cell growth inhibited): ~90%

O=C(O)CNCP(=O)(O)O [glyphosate, N-(Phosphonomethyl)glycine]
inhibition of cell growth scored visually [1]: did not clearly inhibit growth

CN(Cc1cnc2nc(N)nc(N)c2n1)c1ccc(C(=O)N[C@@H](CCC(=O)O)C(=O)O)cc1 [methotrexate]
inhibition at 0.05 µg/mL ([1]; Iris germanica, 504 h, 0.05 mg·L^−1, three weeks on MS-C medium, read-out: cell growth inhibited): ~80%

NC[C@@H]1O[C@H](O[C@H]2[C@@H](O)[C@H](O[C@@H]3[C@@H](O)[C@H](N)C[C@H](N)[C@H]3O[C@H]3O[C@H](CO)[C@@H](O)[C@H](O)[C@H]3N)O[C@@H]2CO)[C@H](N)[C@@H](O)[C@@H]1O [paromomycin]
leaf bleaching [3]: almost completely bleached

gentamycin
inhibition of cell growth scored visually [1]: did not clearly inhibit growth

phleomycin
inhibition of cell growth scored visually [1]: did not clearly inhibit growth

From patent publication US6459017B1, “Iris transformation method” (The State of Oregon Acting By and Through the State Board …, priority 2000, dated 2002)
